Laboratory results: patent publication US12729377B2, “RNAi agents and compositions for inhibiting expression of angiopoietin-like 3 (ANGPTL3), and methods of use” (Arrowhead Pharmaceuticals, Inc., priority 2017, dated 2026)
In the oligonucleotide strings, read from the 5' end, every base follows the letter of its sugar. An asterisk marks phosphorothioate; unmarked linkages are phosphodiester. Other units and linkages are bracketed, terminal groups are in braces. A string of capitals states the bases alone. {NAG37} = tridentate N-acetyl-galactosamine targeting ligand, structure (NAG37)s; [invAb] = inverted abasic unit; m = 2'-O-methyl; f = 2'-fluoro

What was measured:
ANGPTL3 gene [1] = assay: Example 9: serum triglycerides in cynomolgus monkeys; format: in vivo, cynomolgus macaque (Macaca fascicularis); conditions: 2.0 mg/kg single SC injection day 1, cynos, n=3
Experimental: (§1) Additional ANGPTL3 RNAi agents were evaluated in cynomolgus monkeys. On day 1, cynomolgus macaque (Macaca fascicularis) primates (also referred to herein as “cynos”) were administered a single subcutaneous injection of 0.3 mL/kg (approximately 2-3 mL volume, depending on animal mass) containing 2.0 mg/kg of an ANGPTL3 RNAi agent, which included either AD05488, AD05743, AD05775, or AD05841, each formulated in saline. […] ANGPTL3 RNAi agents AD05488, AD05743, and AD05775 included nucleotide sequences designed to target position 304 of the ANGPTL3 gene. ANGPTL3 RNAi agent AD05841 included nucleotide sequences designed to target position 1035 of the ANGPTL3 gene.
(§2) Three (3) cynos in each group were tested (n=3). Blood samples were drawn and serum samples were analyzed on days −14 (predose), −7 (predose), 1 (pre-dose), 8, 15, 22, 29, and 35. Cynos were fasted overnight prior to each collection. ANGPTL3 protein levels in serum were measured by ELISA assay (R&D Systems), according to the manufacturer's recommendations. Triglycerides, total cholesterol, high-density lipoprotein (HDL), and low-density lipoprotein (LDL) in serum were measured on a Cobas® Integra 400 (Roche Diagnostics), according to the manufacturer's recommendations.
(§3) The ANGPTL3 protein levels, triglyceride levels, total cholesterol levels, HDL levels, and LDL levels for each animal were normalized. For normalization, the level of ANGPTL3 protein, triglyceride, HDL, and total cholesterol, respectively, for each animal at a time point, was divided by the average pre-treatment level of expression in that animal (in this case at days −14, −7, and 1) to determine the ratio of expression “normalized to pre-treatment.”

ANGPTL3 gene [2] = assay: Example 9: serum total cholesterol in cynomolgus monkeys; format: in vivo, cynomolgus macaque (Macaca fascicularis); conditions: 2.0 mg/kg single SC injection day 1, cynos, n=3
Experimental: as §1, §2, §3

ANGPTL3 protein = assay: Example 12: serum ANGPTL3 protein by ELISA in LDLR knockout mice; format: in vivo, LDLR KO mice
Text: (§4) To evaluate the effect of RNAi agent administration in a disease model, mice having a genetic mutation for the LDL receptor (referred to herein as LDLR KO mice) were commercially obtained (The Jackson Laboratory). The LDLR KO mice are homozygous for the Ldlr^tm1Her mutation, and have elevated serum cholesterol levels, particularly when placed on a high fat diet. For three weeks prior to the onset of the study, thirty-nine (39) LDLR KO mice were placed on a high fat diet (Teklad Custom Diets TD.88137). An additional eight (8) LDLR KO mice were placed on a normal chow diet over the same three-week period. Pre-dose serum samples were taken on day −15 and day −1 after a four hour fast. At day 1, each mouse was given a single subcutaneous administration of 200 μl/30 g animal body weight containing the respective mg/kg dose of an ANGPTL3 RNAi agent in D5W (dextrose in 5% water), control (D5W) with no RNAi agent, or a control RNAi agent that included a nucleotide sequence designed to target the Hepatitis B Virus (HBV) genome. A second injection of the same formulation was administered to the animals on day 29. The dosing regimen for the study is recited in the following Table 60:
(§5) Each mouse remained on its respective diet through the duration of study. The RNAi agent tested (AD05488) included a modified sequence and an N-acetyl-galactosamine-containing targeting ligand conjugated to the 5′ terminal end of the sense strand. (See Tables 3, […] modified sequences and targeting ligand structures). The injections were performed between the skin and muscle (i.e. subcutaneous injections) into the loose skin over the neck and shoulder area. Serum was collected on days 8, 15, 22, 29 (pre-second dose), 36, 43, 50, and 57. LDLR KO mice were fasted for four hours prior to each collection. On day 15, four (4) LDLR KO mice from Groups 1, 2, and 3 (i.e., the groups being administered the high fat “Western” diet) were sacrificed after serum collection, and on day 29, an additional four (4) LDLR KO mice from Groups 1, 2, and 3 were sacrificed after serum collection, for the purpose of performing mRNA assessments.
(§6) ANGPTL3 protein levels in serum were measured by ELISA assay (R&D Systems), according to the manufacturer's recommendations. Triglycerides, total cholesterol, high-density lipoprotein (HDL), and low-density lipoprotein (LDL) in serum were measured on a Cobas® Integra 400 (Roche Diagnostics), according to the manufacturer's recommendations.
(§7) The ANGPTL3 protein levels, triglyceride levels, total cholesterol levels, HDL levels, and LDL levels for each animal were normalized. For normalization, respective levels of ANGPTL3 protein, TG, total cholesterol, HDL, or LDL for each animal at a time point was divided by the average pre-treatment level of expression in that animal (in this case the average of day −15 and day −1) to determine the ratio of expression “normalized to pre-treatment.”
(§8) Expression at a specific time point was then normalized to the D5W control group that was administered the same diet (i.e., either the high fat “Western” diet or the normal chow-fed diet) by dividing the “normalized to pre-treatment” ratio for an individual animal by the mean “normalized to pretreatment” ratio of all mice in the D5W control group on the respective same diet, resulting in expression for each time point normalized to that in the control group.

ANGPTL3 gene [3] = assay: Example 12: serum total cholesterol in LDLR knockout mice; format: in vivo, LDLR KO mice
Text: as §4, §5, §6, §7, §8

[4] = 3.0 mg/kg on days 1 and 29 (Groups 2 and 5), LDLR KO mice
[5] = 3.0 mg/kg sc day 1, High Fat Diet, Day 8
[6] = 3.0 mg/kg sc day 1, High Fat Diet, Day 15
[7] = 3.0 mg/kg sc day 1, High Fat Diet, Day 22
[8] = 3.0 mg/kg sc day 1, High Fat Diet, Day 29 (pre-second dose)
[9] = 3.0 mg/kg sc day 1, Normal Diet, Day 8
[10] = 3.0 mg/kg sc day 1, Normal Diet, Day 15
[11] = 3.0 mg/kg sc day 1, Normal Diet, Day 22
[12] = 3.0 mg/kg sc day 1, Normal Diet, Day 29 (pre-second dose)
[13] = 3.0 mg/kg sc days 1 and 29, High Fat Diet, Day 36
[14] = 3.0 mg/kg sc days 1 and 29, High Fat Diet, Day 43
[15] = 3.0 mg/kg sc days 1 and 29, High Fat Diet, Day 50
[16] = 3.0 mg/kg sc days 1 and 29, High Fat Diet, Day 57
[17] = 3.0 mg/kg sc days 1 and 29, Normal Diet, Day 36
[18] = 3.0 mg/kg sc days 1 and 29, Normal Diet, Day 43
[19] = 3.0 mg/kg sc days 1 and 29, Normal Diet, Day 50
[20] = 3.0 mg/kg sc days 1 and 29, Normal Diet, Day 57
[21] = day 57, two 3 mg/kg doses, LDLR KO mice on high fat Western diet

“AD05488: RNAi agent duplex: antisense AM07235-AS, sense AM07234-SS (antisense mU*fA*mC*fUmGfAmUfCmAfAmAfUmAfUmGfUmUfGmAfG*mC; sense {NAG37}*[invAb]*mGmCmUmCmAmAmCmAfUfAfUmUmUmGmAmUmCmAmGmUmA*[invAb])” was tested, and the “Average Triglycerides Normalized to Pre-Treatment” value (“Average Triglycerides Normalized” for short) (ANGPTL3 gene [1]; Day 8) was 0.413, the “Average Triglycerides Normalized” value (ANGPTL3 gene [1]; Day 15) was 0.403 and the “Average Triglycerides Normalized” value (ANGPTL3 gene [1]; Day 22) was 0.288. For the same substance, the “Average Triglycerides Normalized” value (ANGPTL3 gene [1]; Day 29) was 0.344, the “Average Triglycerides Normalized” value (ANGPTL3 gene [1]; Day 35) was 0.350 and the “Average Total Cholesterol Normalized to Pre-Treatment” value (shortened to “Average Total Cholesterol Normalized”) (ANGPTL3 gene [2]; Day 8) was 0.823. The “Average Total Cholesterol Normalized” value (ANGPTL3 gene [2]; Day 15) was 0.744, the “Average Total Cholesterol Normalized” value (ANGPTL3 gene [2]; Day 22) was 0.709 and the “Average Total Cholesterol Normalized” value (ANGPTL3 gene [2]; Day 29) was 0.687. The “Average Total Cholesterol Normalized” value (ANGPTL3 gene [2]; Day 35) was 0.659, the “reductions in ANGPTL3 protein levels” value (ANGPTL3 protein; [4]) was “significant reductions” and the “Avg ANGPTL3 Protein Normalized to Pre-Treatment and Control (Diet Matched)” value (“Avg ANGPTL3 Protein Normalized” below) (ANGPTL3 protein; [5]) was 0.013. For the same substance, the “Avg ANGPTL3 Protein Normalized” value (ANGPTL3 protein; [6]) was 0.009, the “Avg ANGPTL3 Protein Normalized” value (ANGPTL3 protein; [7]) was 0.011 and the “Avg ANGPTL3 Protein Normalized” value (ANGPTL3 protein; [8]) was 0.011. For the same substance, the “Avg ANGPTL3 Protein Normalized” value (ANGPTL3 protein; [9]) was 0.042, the “Avg ANGPTL3 Protein Normalized” value (ANGPTL3 protein; [10]) was 0.037 and the “Avg ANGPTL3 Protein Normalized” value (ANGPTL3 protein; [11]) was 0.043. The “Avg ANGPTL3 Protein Normalized” value (ANGPTL3 protein; [12]) was 0.060, the “Avg ANGPTL3 Protein Normalized” value (ANGPTL3 protein; [13]) was 0.005 and the “Avg ANGPTL3 Protein Normalized” value (ANGPTL3 protein; [14]) was 0.005. For the same substance, the “Avg ANGPTL3 Protein Normalized” value (ANGPTL3 protein; [15]) was 0.005, the “Avg ANGPTL3 Protein Normalized” value (ANGPTL3 protein; [16]) was 0.007 and the “Avg ANGPTL3 Protein Normalized” value (ANGPTL3 protein; [17]) was 0.024. For the same substance, the “Avg ANGPTL3 Protein Normalized” value (ANGPTL3 protein; [18]) was 0.024, the “Avg ANGPTL3 Protein Normalized” value (ANGPTL3 protein; [19]) was 0.032 and the “Avg ANGPTL3 Protein Normalized” value (ANGPTL3 protein; [20]) was 0.037. The “ANGPTL3 protein normalized to pre-treatment and control (diet matched)” value (ANGPTL3 protein; [21]) was 0.007, the “reduction in ANGPTL3 protein levels compared to control” value (ANGPTL3 protein; [21]) was “approximately 99%” and the “reductions in total cholesterol” value (ANGPTL3 gene [3]; [4]) was “significant reductions”. The “Avg Total Chol Normalized to Pre-Treatment and Control (Diet Matched)” value (“Avg Total Chol Normalized” for short) (ANGPTL3 gene [3]; [5]) was 0.524, the “Avg Total Chol Normalized” value (ANGPTL3 gene [3]; [6]) was 0.438 and the “Avg Total Chol Normalized” value (ANGPTL3 gene [3]; [7]) was 0.410. The “Avg Total Chol Normalized” value (ANGPTL3 gene [3]; [8]) was 0.410, the “Avg Total Chol Normalized” value (ANGPTL3 gene [3]; [9]) was 0.645 and the “Avg Total Chol Normalized” value (ANGPTL3 gene [3]; [10]) was 0.683. For the same substance, the “Avg Total Chol Normalized” value (ANGPTL3 gene [3]; [11]) was 0.691, the “Avg Total Chol Normalized” value (ANGPTL3 gene [3]; [12]) was 0.636 and the “Avg Total Chol Normalized” value (ANGPTL3 gene [3]; [13]) was 0.438. For the same substance, the “Avg Total Chol Normalized” value (ANGPTL3 gene [3]; [14]) was 0.363, the “Avg Total Chol Normalized” value (ANGPTL3 gene [3]; [15]) was 0.374 and the “Avg Total Chol Normalized” value (ANGPTL3 gene [3]; [16]) was 0.341. For the same substance, the “Avg Total Chol Normalized” value (ANGPTL3 gene [3]; [17]) was 0.758, the “Avg Total Chol Normalized” value (ANGPTL3 gene [3]; [18]) was 0.657 and the “Avg Total Chol Normalized” value (ANGPTL3 gene [3]; [19]) was 0.824. The “Avg Total Chol Normalized” value (ANGPTL3 gene [3]; [20]) was 0.684.
